Measured values from patent US4342780A, “Method of depleting endogenous monoamines” (Merrell-Toraude et Cie, priority 1981, dated 1982).

Columns and labels:
[1] = system: dopamine, noradrenaline and serotonin content; assay: Effect of repeated administration on catecholamine and serotonin content of the mouse brain (Table V); type: in vivo, Male albino mice; conditions: 5 × 100 mg/kg i.p. every 12 hours
Procedure: The following example illustrates the effect of repeated administration of 2-amino-2-fluoromethyl-3(3,4-dihydroxyphenyl)propionic acid in the brain.
Male albino mice (25-30 g) from Charles River, France and dosed i.p. with 100 mg/kg of 2-amino-2-fluoromethyl-3-(3,4-dihydroxyphenyl)propionic acid every 12 hours for 5 doses. Saline solution is used as a control. The mice are sacrificed and the catecholamines, dopamine and noradrenaline, and serotonin (5-hydroxytryptamine) are determined by reverse-phase ion-pair high pressure liquid chromatography using electrochemical detection.

[2] = system: catecholamine content (norepinephrine, dopamine); assay: Catecholamine content in organs of rats after oral administration once daily for 15 days (Table III); type: in vivo, rats (Sprague-Dawley); conditions: 24 h after 15th dose, vs control; for % CHANGE Brain Dopamine: * not significant
Procedure: The test animals (e.g. mice or rats) are given the test compound in a suitable vehicle, either orally or by injection, each day over the period of time desired. The animals are kept on a constant time cycle, and body weights are measured daily. The animals are sacrificed by decapitation 12 to 24 hours after receiving the last dose of the test compound. Control animals receive the vehicle alone.
Immediately after death, the organs (brain, heart, and kidney) are removed and homogenized either in 50 ml phosphate buffer pH 6.8 for AADC determination or in ice-cold 0.4 M HClO4 containing 0.05% (w/v) EDTA and 0.1% (w/v) sodium bisulfite for catecholamine determination. AADC activity is determined by the ^14 CO2 trapping method of J. Christenson, supra (see Example 14) using DL-[1-^14 C]-dopa as the substrate. Catecholamines are determined by centrifuging the homogenate, adding the supernatant to alumina buffered to pH 8.0-8.4 to adsorb the catecholamines, re-extracting the catecholamines from the alumina with 0.2 M HClO4 and determining the catecholamines in the extracts using known procedures, such as by reversed-phase ion-pair HPLC with electrochemical detection.
Table III gives the results obtained by testing particular compounds of Formula I in rats (Sprague-Dawley) after oral administration of the test compound once daily for 15 days. AADC activity was not determined.

[3] = system: catecholamine levels (dopamine, noradrenaline); assay: Effect of dopamine injection on catecholamine levels in heart and brain of mice treated with test compound (Table VI); type: in vivo, Male albino mice; conditions: ± SEM, n = 5; for Heart Dopamine: control 20 ± 2; for Brain Noradrenaline: control 516 ± 24; for Heart Noradrenaline: control 760 ± 87; for Brain Dopamine: control 1183 ± 28
Procedure: Saline solution is used as a control. The mice are sacrificed and the catecholamines, dopamine and noradrenaline, and serotonin (5-hydroxytryptamine) are determined by reverse-phase ion-pair high pressure liquid chromatography using electrochemical detection. […] Twelve hours after the second dose, one group of animals received an i.p. injection of 50 mg/kg of dopamine-HCl (Sigma, Chem. Co), the other group received saline instead. Three hours after the dopamine injection, the animals were killed and catecholamines were measured in heart and brain as described in Example 18.

[4] = 5 mg/kg oral once daily 15 days
[5] = 10 mg/kg oral once daily 15 days
[6] = 15 mg/kg oral once daily 15 days
[7] = 20 mg/kg oral once daily 15 days
[8] = 2 × 100 mg/kg test compound + dopamine 50 mg/kg i.p., * marked
[9] = 2 × 100 mg/kg test compound + saline, * marked

Question: For `NC(CF)(Cc1ccc(O)c(O)c1)C(=O)O` (centres unmarked) [3,4-diOH-phenyl, 2-Amino-2-fluoromethyl-3-(3,4-dihydroxyphenyl)propionic acid], which “% Reduction Dopamine (brain)” value ([1]; vs saline) is on record?
Answer: The value was -97%.

Question: What about the “% Reduction Noradrenaline (brain)” value ([1]; vs saline) of the same compound?
Answer: The value was -94%.

Question: What about the “% Reduction Serotonin (brain)” value ([1]; vs saline) of the same compound?
Answer: Its value is -83%.

Question: And the “Noradrenaline content of the brain” value ([1]; ± S.E.M., saline 310 ± 15)?
Answer: Its value is 19.6 ± 3 ng/g.

Question: And the “Dopamine content of the brain” value ([1]; ± S.E.M., saline 722 ± 47)?
Answer: Its value is 18.6 ± 2 ng/g.

Question: What about the “Serotonin content of the brain” value ([1]; ± S.E.M., saline 1685 ± 29) of the same compound?
Answer: The value was 282 ± 25 ng/g.

Question: And the “% CHANGE Brain Norepinephrine” value [2, 4]?
Answer: The value was -25%.

Question: What about the “% CHANGE Heart Norepinephrine” value [2, 4] of the same compound?
Answer: Its value is -56%.

Question: And the “% CHANGE Brain Dopamine” value [2, 4]?
Answer: The value was -2%.

Question: And the “% CHANGE Brain Norepinephrine” value [2, 5]?
Answer: Its value is -47%.

Question: And the “% CHANGE Heart Norepinephrine” value [2, 5]?
Answer: Its value is -67%.

Question: What about the “% CHANGE Brain Dopamine” value [2, 5] of the same compound?
Answer: Its value is -8%.

Question: And the “% CHANGE Brain Norepinephrine” value [2, 6]?
Answer: Its value is -51%.

Question: And the “% CHANGE Heart Norepinephrine” value [2, 6]?
Answer: The value was -68%.

Question: And the “% CHANGE Brain Dopamine” value [2, 6]?
Answer: Its value is -6%.

Question: What about the “% CHANGE Brain Norepinephrine” value [2, 7] of the same compound?
Answer: The value was -49%.

Question: And the “% CHANGE Heart Norepinephrine” value [2, 7]?
Answer: The value was -72%.

Question: And the “% CHANGE Brain Dopamine” value [2, 7]?
Answer: Its value is -10%.

Question: And the “Heart Dopamine” value [3, 8]?
Answer: The value was 429 ± 39 ng/g.

Question: And the “Brain Noradrenaline” value [3, 8]?
Answer: The value was 42 ± 4 ng/g.

Question: What about the “Heart Noradrenaline” value ([3]; 2 × 100 mg/kg test compound + dopamine 50 mg/kg i.p.) of the same compound?
Answer: Its value is 882 ± 47 ng/g.

Question: What about the “Brain Dopamine” value [3, 8] of the same compound?
Answer: Its value is 92 ± 8 ng/g.

Question: What about the “Heart Dopamine” value ([3]; 2 × 100 mg/kg test compound + saline) of the same compound?
Answer: The value was 98 ± 62 ng/g.

Question: And the “Brain Noradrenaline” value [3, 9]?
Answer: The value was 44 ± 6 ng/g.

Question: What about the “Heart Noradrenaline” value [3, 9] of the same compound?
Answer: The value was 173 ± 24 ng/g.

Question: What about the “Brain Dopamine” value [3, 9] of the same compound?
Answer: The value was 47 ± 5 ng/g.
